Consider three compounds from US20070015232A1, “Mitotic index assay” (DiscoveRx, Inc., priority 2005, published 2007).

Experiment [1] has as its target EA-NLS/NRS (β-galactosidase enzyme acceptor fragment fused to a nuclear localization signal / nuclear retention signal) (E. coli) [β-galactosidase: P00722]. Briefly: cell-based or functional assay.
The target of experiment [2] is cyto-EA (β-galactosidase enzyme acceptor fragment localized in the cytoplasm) (E. coli) [β-galactosidase: P00722]. The experiment in a line: cell-based or functional assay.
The test system of experiment [3] is CHO-K1+cyto-EA cells transfected with cJUN-PL. Briefly: EFC mitotic index assay, CHO-K1+cyto-EA cells transiently transfected with cJUN-PL. The following applies: for Avg luminescence readout / R1 luminescence readout / R3 luminescence readout / Ratio (Avg vs 0 conc): overnight. The format is cell-based.
Experiment [4] deals with CHO-K1+EA-NLS/NRS+GR-PL cells. Briefly: EFC mitotic index assay, CHO-K1+EA-NLS/NRS+GR-PL cells, antibiotic selected pool (DX M19/GR pool). It is filed as cell-based. The following applies: 24 hours, 30 min read.
The subject of experiment [5] is C2C12+EA-NLS/NRS+GR-PL cells. Briefly: EFC mitotic index assay, C2C12+EA-NLS/NRS+GR-PL cells (Stanford GR cells). The format is cell-based, mouse. The settings on record: for Avg luminescence readout / R1 luminescence readout / R3 luminescence readout / Ratio (Avg vs 0 conc): 24 hours, 30 min read.
Experiment [6] relates to Clone #69 CHO-K1 cells expressing EA-NLS/NRS and GR-PL. Briefly: EFC assay in stable clone #69 (CHO-K1, EA-NLS/NRS and GR-PL) with or without RU486 pre-incubation. The format is cell-based. The settings on record: for Avg luminescence readout / R1 luminescence readout / R3 luminescence readout / Ratio (Avg vs 0 conc): overnight, vehicle pre-incubation. On the procedure: In the next experiment, a stable clone (clone #69) expressing both EA-NLS/NRS and GR-PL was isolated in a CHO-K1 parental background. […] 20,000 cells/well were plated in a 96 well white coming multi-well plate and allowed to adhere overnight. The next day, the cells were washed two times with serum free F12 media and 100 μL of serum free F12 media was added to the cells. The cells were then incubated in either vehicle (ethanol-1% final concentration) or 10 μM RU486 for one hour. To the cells, three different concentrations of dexamethasone (300, 100, 30 μM) (an agonist of GR), RU486 (30, 10, 3.33 μM), colchicine (1, 0.3, 0.1 μ/mL) or nocodazole (10, 3.33, 1.11 μg/mL) were added and the incubation went overnight at 37° C. with 5% CO2. The next day, the media was aspirated off and 100 μL of Tropix/ABI Gal screen cell lysis/substrate reagent was added to the cells. The plate was read on the Victor II reader at 30, 60 and 120 minutes.

Setting [7] is: High conc (nocodazole 10 μg/mL, colchicine 1 μ/mL, dexamethasone 300 μM, RU486 30 μM).
[8] abbreviates: Low conc (nocodazole 1.11 μg/mL, colchicine 0.1 μ/mL, dexamethasone 30 μM, RU486 3.33 μM).
[9] abbreviates: Med conc (nocodazole 3.33 μg/mL, colchicine 0.3 μ/mL, dexamethasone 100 μM, RU486 10 μM).

In experiment [1], “GR-PL (human glucocorticoid receptor fused to PL, a 55 mer α-fragment of β-galactosidase) (from UniProt P04150 1-777)” registered an EFC (β-galactosidase chemiluminescence after lysis), CHO-K1 pool, Taxol, nocodazole and colchicine overnight of less than 4 fold; an EFC activity (β-galactosidase chemiluminescence after lysis), C2C12 cells, nocodazole 1-10 µg/mL of 2 fold; an EFC activity, CHO-K1 clone #69, nocodazole and colchicine of 3 to 4 fold.

As for “cJUN-PL (c-Jun fused to the PL β-galactosidase enzyme donor fragment)”, the EFC activity, CHO-K1 cyto-EA cells transiently transfected with cJUN-PL, nocodazole and colchicine in experiment [2] was 2.1 fold.

As to `COC(=O)Nc1nc2ccc(C(=O)c3cccs3)cc2[nH]1` [Nocodazole, nocodazole], the Avg luminescence readout in experiment [3] (3.0 μg/mL) was found to be 9887; in experiment [3] (10.0 μg/mL), 12728; in experiment [3] (30.0 μg/mL) it was 11870; in experiment [3] (100.0 μg/mL), 14898; in experiment [4] (0.3 μg/mL), 15528; in experiment [4] (1.0 μg/mL) it was 24777. Moreover, the Avg luminescence readout in experiment [4] (3.3 μg/mL) was determined as 23766; in experiment [4] (10.0 μg/mL), 25709; in experiment [5] (0.3 μg/mL) it was 4443; in experiment [5] (1.0 μg/mL), 6354; in experiment [5] (3.3 μg/mL), 6068; in experiment [5] (10.0 μg/mL) it was 5867. Besides, the Avg luminescence readout in experiment [6] (setting [7]) worked out at 11592; in experiment [6] (setting [8]), 11575; in experiment [6] (setting [9]) it was 11445. Further, the R1 luminescence readout in experiment [3] (3.0 μg/mL) was 9509; in experiment [3] (10.0 μg/mL) it was 11991; in experiment [3] (30.0 μg/mL), 10083; in experiment [3] (100.0 μg/mL), 13010; in experiment [4] (0.3 μg/mL), 15003; in experiment [4] (1.0 μg/mL), 23225. Further, the R1 luminescence readout in experiment [4] (3.3 μg/mL) stood at 24010; in experiment [4] (10.0 μg/mL) it was 22978; in experiment [5] (0.3 μg/mL), 4243; in experiment [5] (1.0 μg/mL) it was 6029; in experiment [5] (3.3 μg/mL) it was 5669; in experiment [5] (10.0 μg/mL) it was 4401. The R1 luminescence readout came to 11504 in experiment [6] (setting [7]), 11488 in experiment [6] (setting [8]) and 11364 in experiment [6] (setting [9]). Further, the R3 luminescence readout turned out to be 9751 in experiment [3] (3.0 μg/mL); 12371 in experiment [3] (10.0 μg/mL); 12287 in experiment [3] (30.0 μg/mL); 16060 in experiment [3] (100.0 μg/mL); 13585 in experiment [4] (0.3 μg/mL); 24165 in experiment [4] (1.0 μg/mL). The R3 luminescence readout in experiment [4] (3.3 μg/mL) was determined as 23172; in experiment [4] (10.0 μg/mL), 28584; in experiment [5] (0.3 μg/mL), 4599; in experiment [5] (1.0 μg/mL), 6678; in experiment [5] (3.3 μg/mL), 6360; in experiment [5] (10.0 μg/mL) it was 5806. Also, the R3 luminescence readout amounted to 11616 in experiment [6] (setting [7]), 11606 in experiment [6] (setting [8]) and 11457 in experiment [6] (setting [9]). Further, the “Ratio (Avg vs 0 conc)” value in experiment [3] (3.0 μg/mL) turned out to be 1.4; in experiment [3] (10.0 μg/mL), 1.8; in experiment [3] (30.0 μg/mL), 1.6; in experiment [3] (100.0 μg/mL) it was 2.1; in experiment [4] (0.3 μg/mL), 2; in experiment [4] (1.0 μg/mL), 3. Also, the “Ratio (Avg vs 0 conc)” value in experiment [4] (3.3 μg/mL) is listed as 3; in experiment [4] (10.0 μg/mL), 3; in experiment [5] (0.3 μg/mL), 1; in experiment [5] (1.0 μg/mL), 2; in experiment [5] (3.3 μg/mL), 2; in experiment [5] (10.0 μg/mL) it was 2. Besides, the “Ratio (Avg vs 0 conc)” value in experiment [6] (setting [7]), in experiment [6] (setting [8]) and in experiment [6] (setting [9]) was 4 throughout. In addition, the “increase in EFC activity” value in experiment [3] (overnight incubation) is on record as roughly 2.1 fold; in experiment [5] (treatment 1-10 μg/mL), roughly 2 fold. Further, the “effect of incubation with RU486 on the EFC response (in words)” value in experiment [6] (10 μM RU486 pre-incubation for one hour) is given as “not blocked by the incubation with RU486”.
